Measured values reported in paper PMC10974272, “Cytotoxic and Antiproliferative Activity of LASSBio-2208 and the Attempts to Determine Its Drug Metabolism and Pharmacokinetics In Vitro Profile” (Pharmaceuticals, 2024).

What was measured:
MCF-7 = experiment: SRB cell viability/antiproliferative assay, MCF-7; conditions: Homo sapiens, MCF7, 48 h; for Emax: SRB 48 h, MCF-7, maximum effect at maximum concentration used
PC-3 = experiment: SRB cell viability/antiproliferative assay, PC-3; conditions: for Emax: SRB 48 h, PC-3, maximum effect at maximum concentration used
[1] = test system: human leukaemia cell line (CCRF-CEM); experiment: MTT cell viability assay, CCRF-CEM
Experimental: (§8) After the incubation time, the plate was centrifuged (Universal centrifuge 320R Hettich, Kirchlengern, Germany) at 440× g, 10 min and 4 °C, then 110 µL of supernatant was removed and 10 µL of MTT solution was added and left to incubate for 3.5 h in the oven at 37 °C and 5% CO2. […] The CC50 was calculated using the GraphPad Prism 9.0 program. Each sample was tested in triplicate in three independent experiments (N3) [32, 33].

[2] = test system: human prostate cancer cell line (PC-3); experiment: MTT cell viability assay, PC-3; conditions: Homo sapiens
Experimental: as §8

[3] = test system: human peripheral blood mononuclear cells (hPBMC); experiment: PBMC viability assay by MTT; format: cell-based; conditions: MTT 48 h; for Emax: human PBMC, maximum cytotoxic response at 100 µM; for CC50: non-tumour human PBMC
Experimental: (§1) The SI indicates how selective a compound is for a tumour cell line compared with a non-tumour cell line.
(§2) Human peripheral blood mononuclear cells (PBMCs) were used to determine the selectivity index (SI) and were obtained from healthy volunteers under a protocol approved by the Ethics Committee CAAE: 38257914.7.0000.5259. Immortalized cells were also obtained from the Rio de Janeiro Cell Bank (BCRJ).
(§3) First, 8 mL of blood from each healthy donor (3 people) was collected in a tube with EDTA in a 1:20 ratio to prevent the blood from clotting. In a 15 mL Falcon tube containing 4 mL of Ficoll-Paque, the 8 mL of blood collected was slowly added, letting it fall down the walls of the tube. It was centrifuged (Universal Centrifuge 320R Hettich) for 40 min at 750× g at 21 °C with acceleration 1 and brake 0. After centrifugation, in order to extract the ring of mononuclear cells, the supernatant above it was first carefully discarded so as not to disturb the ring. The ring was then slowly removed and placed in another 15 mL Falcon tube to which pure RPMI-1640 medium was added in a 1:1 ratio and centrifuged for 10 min at 580× g and 21 °C with acceleration 8 and brake 9 [34, 35].
(§4) The supernatant was discarded, and the pellet was resuspended in 1 mL of RPMI-1640 medium supplemented with 10% SBF and 1% antibiotic. An amount of 20 µL of cells were taken from the mixture and added to 380 µL of trypan blue dye for counting in the Neubauer chamber. Considering that 80% of PBMCs are lymphocytes and the rest are monocytes, the cells were plated with the aim of having 10^5 cell/well.

[4] = PBMC viability assay by MTT; format: cell-based, human; conditions: MTT 48 h, non-tumour human PBMC
Experimental: as §1, §2, §3, §4

CCRF-CEM = experiment: SRB cell viability/antiproliferative assay, CCRF-CEM; conditions: Homo sapiens, 48 h
[5] = test system: breast cancer cell line (MCF-7); experiment: MTT cell viability assay, MCF-7; conditions: Homo sapiens
Experimental: as §8

PAMPA—BBB = format: in vitro ADME; set-up: key to Classification BBB: permeable (CNS+); non-permeable (CNS−); conditions: for Papp: read-out: Pe. Exp. BBB
Experimental: (§5) To obtain information on the permeability potential of LASSBio-2208 on cell membranes, this derivative was tested using the parallel artificial membrane permeability assay (PAMPA) that is used as an in vitro model of passive diffusion and transcellular permeation. In this model, the permeability across two artificial membranes is measured: brain lipid from pig extract in dodecane (called PAMPA—BBB) and L-α soy phosphatidylcholine in dodecane (called PAMPA—TGI).
(§6) To perform the permeability assay we used a donor plate where the compounds (tests or controls) are diluted in a buffered medium, characterized by the presence of a synthetic membrane of polyvinylidene fluoride (PVDF) impregnated with a lipid solution, forming a barrier through which the compounds migrate through a diffusion process to the lower plate called the receptor.
(§7) The lipid mixture that impregnates the filter has a different constitution for the permeability tests for the blood–brain barrier (brain lipid from pig extract in dodecane) and gastrointestinal tract (L-α soy phosphatidylcholine in dodecane). In the PAMPA—BBB and PAMPA—GIT assays, the optical density values obtained in the reading at each selected wavelength, for each of the compounds were analysed in comparison with the values of several controls. In the case of the BBB, these values were used to elaborate an equation and determine the permeability coefficient (Pe), using a previously elaborated spreadsheet, and, for the PAMPA—GIT, these values were used to determine the absorbed fraction (Fa%), both using the Excel program. The permeability result for PAMPA—GIT classifies the compounds according to the percentage of absorbed fraction (Fa%), as follows: high intestinal permeability (70–100%), medium permeability (30–69%) or low permeability (0–29%), and the samples were diluted from a stock solution of 10 mM. The PAMPA—BBB model classifies the compounds only as follows: permeable (CNS+) or non-permeable (CNS−) and the assays were made from a stock solution of 1 mg for each compound [25, 40, 41, 42].

PAMPA—GIT = format: in vitro ADME; conditions: for Papp: PAMPA, read-out: Pe. Exp. GIT
Experimental: as §5, §6, §7

HDAC-6 = conditions: cited from earlier work
MOLT-4 = experiment: SRB cell viability/antiproliferative assay, MOLT-4; conditions: Homo sapiens, MOLT-4, 48 h
[6] = Non-specific microsome protein binding; format: in vitro ADME; conditions: for fraction unbound at 60 min, 8.3 µM: rat, pH 7.4, liver microsomes 0.5 mg protein/mL, 37 °C, read-out: Percentage of ƒu(mic) (unbound fraction in nonspecific microsomal binding)
Experimental: Once such bonds are formed, the bound fraction would become incapable of being metabolized.
Liver microsomes were diluted with PBS pH 7.4 to a concentration of 0.5 mg protein/mL and 3 µL at 1 mM of the working test compound and solutions were mixed with 357 µL of liver microsome suspension. After mixing, duplicate 200 µL aliquots were immediately removed, while another microtubule acted as the control sample (T 0 h), and were quenched with 400 µL of cold acetonitrile containing analytical internal standards. The other samples were incubated at 37 °C at 100 rpm, for 60 min with the same subsequent treatment.

SMILES | CC50 (MCF-7) [µM] | Emax (MCF-7) [%] | CC50 (PC-3; Homo sapiens, PC-3, 48 h) [µM] | Emax (PC-3; Homo sapiens, PC-3, 48 h) [%] | CC50 ([1]; 24 h) [µM] | Emax ([1]; 24 h) [%] | CC50 ([1]; 48 h) [µM] | Emax ([1]; 48 h) [%] | CC50 ([1]; 72 h) [µM] | Emax ([1]; 72 h) [%] | CC50 ([2]; 24 h) [µM] | Emax ([2]; 24 h) [%] | CC50 ([2]; 48 h) [µM] | Emax ([2]; 48 h) [%] | CC50 ([2]; 72 h) [µM] | Emax ([2]; 72 h) [%] | Emax [3] [%] | CC50 [3] | CC50 at 48 h [4] [µM] | CC50 (CCRF-CEM) [µM] | further results
CN(C)c1ccc(C(=O)N/N=C/c2ccc(C(=O)NO)cc2)cc1 [LASSBio-1911] | 39.1 | > 80 | > 100 | < 35 | 9.69 | 98 | 6.98 | 98.8 | 6.92 | 97.1 | > 100 | 26.4 | > 100 | 42.6 | 77.1 | 59.2 | 31.1 | no cytotoxic effect | > 100 | 25.2 | Emax (PC-3): 34.04%; Emax (CCRF-CEM): 69.2%; CC50 ([5]; MCF7, 24 h): > 100 µM; Emax ([5]; MCF7, 24 h): 21.6%; CC50 ([5]; MCF7, 48 h): 42.6 µM; Emax ([5]; MCF7, 48 h): 65.4%; CC50 ([5]; MCF7, 72 h): 38.4 µM; Emax ([5]; MCF7, 72 h): 75.4%; Classification BBB (PAMPA—BBB): CNS−; Papp (PAMPA—BBB): 0.29 ×10⁻⁶ cm/s; Fraction Absorbed (PAMPA—GIT): 20.15%; Pe. Exp. GIT (PAMPA—GIT): 0.592 10^−6 cm/s; Papp (PAMPA—GIT): 0.359 ×10⁻⁶ cm/s; IC50 (HDAC-6): 0.015 µM; CC50 (MOLT-4): 53.1 µM; Emax (MOLT-4): 61%; fraction unbound at 60 min, 8.3 µM [6]: 0.004
O=C(NO)c1ccc(/C=N/NC(=O)c2cc(N3CCOCC3)nc(-c3cccc(O)c3)n2)cc1 [LASSBio-2208] | 5.44 | 67.4 | 98.9 | > 50 | 27.8 | 69.4 | 8.68 | 91.7 | 8.54 | 90.4 | > 100 | 18.4 | > 100 | 39.3 | > 100 | 42.1 | 29.9 | no cytotoxic effect | > 100 | > 100 | CC50 ([5]; MCF7, 24 h): > 100 µM; Emax ([5]; MCF7, 24 h): 29.5%; CC50 ([5]; MCF7, 48 h): 31.7 µM; Emax ([5]; MCF7, 48 h): 57.3%; CC50 ([5]; MCF7, 72 h): 23 µM; Emax ([5]; MCF7, 72 h): 60.7%; Classification BBB (PAMPA—BBB): CNS−; Pe. Exp. BBB (PAMPA—BBB): low permeation; Papp (PAMPA—BBB): 0.69 ×10⁻⁶ cm/s; Fraction Absorbed (PAMPA—GIT): 13.78%; Papp (PAMPA—GIT): 0.39 ×10⁻⁶ cm/s; IC50 (HDAC-6): 0.0153 µM; CC50 (MOLT-4): > 100 µM; unbound in nonspecific microsomal binding ([6]; liver microsomes): more than 93%; fraction unbound at 60 min, 8.3 µM [6]: 0.937
